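Grown in 96-well plates, cells were treated for 48 hours with each compound at five concentrations. Insufficient inhibition: endpoint recorded as highest concentration tested. Definition used: TGI = concentration required for complete inhibition of growth.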
Assays:
Test in all cases: inhibition of tumour cell growth, NCI panel, 48 h
A498 renal = test system: A498 renal
SK-MEL-28 melanoma = test system: SK-MEL-28 melanoma
HS 578T breast = test system: HS 578T breast
MDA-MB-231 breast = test system: MDA-MB-231 breast
UACC-257 melanoma = test system: UACC-257 melanoma
SNB-75 CNS = test system: SNB-75 CNS
ACHN renal = test system: ACHN renal
M14 melanoma = test system: M14 melanoma
RPMI-8226 leukemia = test system: RPMI-8226 leukemia
EKVX NSCLC = test system: EKVX NSCLC
MCF7 breast = test system: MCF7 breast
OVCAR-4 ovarian = test system: OVCAR-4 ovarian
KM12 colon = test system: KM12 colon
UACC-62 melanoma = test system: UACC-62 melanoma
HCT-15 colon = test system: HCT-15 colon
IGROV1 ovarian = test system: IGROV1 ovarian
786-0 renal = test system: 786-0 renal
TK-10 renal = test system: TK-10 renal
SF-268 CNS = test system: SF-268 CNS
SW-620 colon = test system: SW-620 colon
NCI-H226 lung = test system: NCI-H226 lung
OVCAR-5 ovarian = test system: OVCAR-5 ovarian
U251 CNS = test system: U251 CNS
LOX IMVI melanoma = test system: LOX IMVI melanoma
OVCAR-3 ovarian = test system: OVCAR-3 ovarian
RXF 393 renal = test system: RXF 393 renal
K-562 leukemia = test system: K-562 leukemia
SK-OV-3 ovarian = test system: SK-OV-3 ovarian
MOLT-4 leukemia = test system: MOLT-4 leukemia
UO-31 renal = test system: UO-31 renal
HOP-62 NSCLC = test system: HOP-62 NSCLC
BT-549 breast = test system: BT-549 breast
HT29 colon = test system: HT29 colon
SF-295 CNS = test system: SF-295 CNS
NCI-H522 lung = test system: NCI-H522 lung
HCC-2998 colon = test system: HCC-2998 colon
PC-3 prostate = test system: PC-3 prostate
T-47D breast = test system: T-47D breast
A549 NSCLC = test system: A549 NSCLC
MALME-3M melanoma = test system: MALME-3M melanoma
HL-60(TB) leukemia = test system: HL-60(TB) leukemia
COLO 205 colon = test system: COLO 205 colon
NCI/ADR-RES ovarian = test system: NCI/ADR-RES ovarian
HCT-116 colon = test system: HCT-116 colon
MDA-MB-435 = test system: MDA-MB-435
NCI-H23 lung = test system: NCI-H23 lung
SK-MEL-5 melanoma = test system: SK-MEL-5 melanoma
CAKI-1 renal = test system: CAKI-1 renal
HOP-92 NSCLC = test system: HOP-92 NSCLC
CCRF-CEM leukemia = test system: CCRF-CEM leukemia
SNB-19 CNS = test system: SNB-19 CNS
NCI-H460 lung = test system: NCI-H460 lung
OVCAR-8 ovarian = test system: OVCAR-8 ovarian
DU-145 prostate = test system: DU-145 prostate
SN12C renal = test system: SN12C renal

CN(CCc1ccccn1)c1ccc2c(c1)Cc1ccccc1-2
TGI (A498 renal): 50.6 µM
TGI (SK-MEL-28 melanoma): > 100 µM
TGI (HS 578T breast): 9.92 µM
TGI (MDA-MB-231 breast): 21.9 µM
TGI (UACC-257 melanoma): 92.2 µM
TGI (SNB-75 CNS): 45.2 µM
TGI (ACHN renal): > 100 µM
TGI (M14 melanoma): 94.3 µM
TGI (RPMI-8226 leukemia): 84.7 µM
TGI (EKVX NSCLC): 62 µM
TGI (MCF7 breast): > 100 µM
TGI (OVCAR-4 ovarian): 97.7 µM
TGI (KM12 colon): 37.7 µM
TGI (UACC-62 melanoma): > 100 µM
TGI (HCT-15 colon): > 100 µM
TGI (IGROV1 ovarian): 88.1 µM
TGI (786-0 renal): > 100 µM
TGI (TK-10 renal): > 100 µM
TGI (SF-268 CNS): > 100 µM
TGI (SW-620 colon): > 100 µM
TGI (NCI-H226 lung): 40.5 µM
TGI (OVCAR-5 ovarian): > 100 µM
TGI (U251 CNS): 22.6 µM
TGI (LOX IMVI melanoma): > 100 µM
TGI (OVCAR-3 ovarian): > 100 µM
TGI (RXF 393 renal): > 100 µM
TGI (K-562 leukemia): > 100 µM
TGI (SK-OV-3 ovarian): 68.6 µM
TGI (MOLT-4 leukemia): > 100 µM
TGI (UO-31 renal): > 100 µM
TGI (HOP-62 NSCLC): 44.6 µM
TGI (BT-549 breast): 46.8 µM
TGI (HT29 colon): > 100 µM
TGI (SF-295 CNS): 41.1 µM
TGI (NCI-H522 lung): 62.1 µM
TGI (HCC-2998 colon): > 100 µM
TGI (PC-3 prostate): 23.9 µM
TGI (T-47D breast): 92.5 µM
TGI (A549 NSCLC): > 100 µM
TGI (MALME-3M melanoma): 93.7 µM
TGI (HL-60(TB) leukemia): 59.3 µM
TGI (COLO 205 colon): 41.4 µM
TGI (NCI/ADR-RES ovarian): > 100 µM
TGI (HCT-116 colon): > 100 µM
TGI (MDA-MB-435): > 100 µM
TGI (NCI-H23 lung): > 100 µM
TGI (SK-MEL-5 melanoma): 31.3 µM
TGI (CAKI-1 renal): > 100 µM
TGI (HOP-92 NSCLC): 31.9 µM
TGI (CCRF-CEM leukemia): 68.8 µM
TGI (SNB-19 CNS): 58 µM
TGI (NCI-H460 lung): > 100 µM
TGI (OVCAR-8 ovarian): 77.8 µM
TGI (DU-145 prostate): > 100 µM
TGI (SN12C renal): > 100 µM
